Consider four compounds from patent US8444858B2, “Control of development of biofilms in industrial process water” (A.Y. Laboratories Ltd., priority 2001, dated 2013).

Data set [1] has as its system catalase (Merck). The data set can be described thus: Inactivation of catalase, residual H2O2 laboratory test. The class given is biochemical. To be noted: for Residual H2O2 concentration, % of 3.5% g/l: catalase 26 units/ml. The protocol:
Freshly prepared biofilm inhibiting substance was added to the appropriate flasks containing diluted catalase at a pre-defined feed rate. The contents of the containers were mixed for 60 minutes at room temperature prior to addition of H2O2 (to a final H2O2 concentration of 3.5 g/l). After addition of the H2O2, the mixture was allowed to mix for 30 minutes at room temperature, at which point H2O2 residues were measured in each flask in accordance with the Dr. Lange Cuvette Test LCW 058, measured with LASA 20 (based on Jander/Blasius: Lehrbach der Analytischen and Praparative Anorganischen Chemie, as described in the Handbook of Photometrical Operation Analysis (October 1997)).
Sodium hypochlorite was diluted in DI water to a final concentration of 6000 ppm expressed as total chlorine. Ammonium bromide solution (equimolar to 1.1 mole of the diluted sodium hypochlorite solution, 10% excess on a molar basis) and ammonium chloride solution (equimolar to 1.1 mole of the diluted hypochlorite solution, 10% excess on a molar basis) were prepared. The diluted hypochlorite (50 ml) was added dropwise to 50 ml of the appropriate ammonium salt while the pH was constantly measured. The biofilm inhibiting substance concentration in the produced stock solution was immediately measured and the biofilm inhibiting substance at the appropriate feed level was immediately added to the test flasks.

For data set [2], the system named is biofilm. The data set can be described thus: Pilot plant wastewater pipes, difference in Hazen-Williams coefficient treated vs control pipe. To be noted: single 3 h treatment on day 1 at 10 ppm as total chlorine. How it is done:
Treated wastewater was pumped through several pipes of 10 m length and 4 inches inner diameter in a pilot plant. […] Pressure drop through each pipe was monitored on-line, and average HW coefficients were calculated.
The biofilm inhibiting substance in this example was produced as follows, using a small feeding system was built specifically for this trial. […] The concentration of the biofilm inhibiting substance pre-injection solution was ˜3600 ppm and the pH was 9.2-9.6. […]

Data set [3] concerns mixed culture of slime-forming-bacteria which had been isolated from a paper machine. The data set can be described thus: Formation of biofilm on stainless steel coupons in a model system (viable counts in medium and on coupons). It counts as cell-based. The protocol: Formation of biofilm on stainless steel coupons in the presence or absence of an oxidizing biocide or a biofilm inhibiting substance was evaluated in the laboratory. The test system consisted of (a) three closed flasks each containing 20 L nutrient-rich medium (diluted three-fold from its recommended use concentration), (b) three closed cells containing stainless steel coupons hanging freely, and (c) three identical circulation pumps, each pump connected via plastic pipes to one of the flasks and to one of the cells. The system was placed in a thermostatic room at 35° C.
An innoculum containing a mixed culture of slime-forming-bacteria which had been isolated from a paper machine was added to each of the flasks. An oxidizer containing a 5 ppm mixture (expressed as total Cl2) of bromochlorodimethylhydantoin (an oxidizing biocide which is a source of HOBr and HOCl) (hereinafter “mixed halogens”) was added to the first flask once a day for the duration of the trial (4 days). […] The third flask served as a control for the two flasks treated with the oxidizing biocide or biofilm inhibiting substances. […] A diluted solution of sodium hypochlorite in deionized (DI) water (˜8000 ppm as total chlorine) was fed with one pump; a diluted solution of ammonium bromide (12500 ppm) was fed with the second pump. The two diluted solutions were synchronously mixed in a short glass pipe to form a pre-injection solution of biofilm inhibiting substance, using a pH meter to control and check the stability of the biofilm inhibiting substance formed. The biofilm inhibiting substance was fed to the test system immediately as it was produced.
On days 2 and 4, each closed cell was opened and 2 coupons were aseptically removed from each cell. At the same time samples of the circulating medium were taken as well. Sampling was conducted after feeding the daily slug dose of biocide.
Each sample of medium was serially 10-fold diluted in sterile saline solution and plated in molten agar. Each coupon was thoroughly rinsed to remove any adhered particles, aseptically scraped, and the material removed by scraping was quantitatively dispersed in saline solution, vortexed, serially 10-fold diluted and plated in molten agar. Viable counts of microorganisms were taken after 48 h of incubation at 35° C. Viable counts of cells in the medium are presented as colony forming units (cfu) per ml; viable counts on the coupon surfaces are presented as cfu/cm^2.

Data set [4] deals with biofilm. In words: Waste water fouling control in a 7 km pipe, Hazen-Williams coefficient. To be noted: NaOCl at a level of up to 50 mg/l (calculated as Cl2). The protocol: Treated wastewater was piped from a wastewater treatment plant to a location 7 kilometers away.
(The Hazen-Williams coefficient is used to express water flow through industrial pipes. It is calculated using the formula
[formula] wherein P is the friction pressure drop expressed in pounds per square inch per 1000 feet of pipe length, B is the flow rate in barrels per hour, s is the specific gravity of the liquid, C=a friction factor (the Hazen-Williams coefficient), and d is the internal diameter of the pipe in inches. P and B are measured for a given pipe, s and d are treated as constants, and C is calculated. The results are presented as the Hazen-Williams coefficient.
Waste water (up to 10 m^3/h) was used to appropriately dilute both chemicals. An on-line pH meter controlled the production process and the hypochlorite feeding rate to ensure the production of a stable biofilm inhibiting substance. The biofilm inhibiting substance was injected into the treated waste pipe as it was produced. Concentration of the biofilm inhibiting substance stock solution was 3000-4000 ppm; the pH was maintained at 9.5-10.

A short description of data set [5]: De-inking plant field trial, residual H2O2, residual biofilm inhibiting substance and H2O2 consumption. How it is done:
A de-inking system had been using 7-10 kg H2O2 per ton of waste paper.
The reaction pH was Maintained at 9.8-10.0. The Production process was controlled to ensure synchronous metering of the two chemicals, continuous mixing at the predetermined molar ratio and reproducible production of a stable biofilm inhibiting substance stock solution for the duration of the trial and longer. […] After 850 minutes the dosing rate was reduced to 85 g/ton expressed as total Cl2 by feeding the biofilm inhibiting substance semi-continuously. Various parameters were monitored during start-up of the trial: Residual biofilm inhibiting substance was measured (using a Hach pocket colorimeter, total Cl2, based on the DPD method adapted from Standard Methods for Examination of Waste and Waste Water). […] When necessary, samples were diluted with DI water.

Regarding `NCl` [Chloramine, monochloroamine, reference compound], the “oxidation of H2O2 by the substance” value in data set [1] was “do not oxidize H2O2”. Also, the “Residual H2O2 concentration, % of 3.5% g/l” value in data set [1] (BIS 6.7 ppm as total chlorine) was 6.8 % of 3.5% g/l; in data set [1] (BIS 58 ppm as total chlorine) it was 97.1 % of 3.5% g/l; in data set [1] (BIS 128 ppm as total chlorine) it was 99.4 % of 3.5% g/l. For the same compound, the “HW Diff. treated pipe - Control” value was found to be 13.0 in data set [2] (day 1); 10.8 in data set [2] (day 2); 10.7 in data set [2] (day 3); 15.0 in data set [2] (day 4); 15.2 in data set [2] (day 5); 15.15 in data set [2] (day 6). Further, the “HW Diff. treated pipe - Control” value in data set [2] (day 7) came to 14.6; in data set [2] (day 8) it was 12.9; in data set [2] (day 9) it was 13.0; in data set [2] (day 10), 11.5; in data set [2] (day 11), 9.5; in data set [2] (day 12), 8.6. The “HW Diff. treated pipe - Control” value is 7.0 in data set [2] (day 13); 6.2 in data set [2] (day 14); 4.4 in data set [2] (day 15); 2.4 in data set [2] (day 16); 0.8 in data set [2] (day 17); 0.7 in data set [2] (day 18).

Turning to `CC1(C)C(=O)N(Cl)C(=O)N1Br` [Mixed Halogens, bromochlorodimethylhydantoin, reference compound], in data set [3] (coupons after 4 days), the “increase in the viable count of biofilm bacteria compared to day 2” value is on record as 3 fold. Moreover, the “reduction in viable count of planktonic microorganisms” value in data set [3] (medium sample after four days) is given as approximately 10 fold. The “Viable Counts After 2 Days, medium” value in data set [3] (planktonic cells in circulating medium, day 2, daily slug dose (Mixed Halogens 5 ppm, Fuzzicide BAC […] expressed as Cl2), 35° C.) is reported as 9 × 10^6 cfu/ml. Further, in data set [3] (planktonic cells in circulating medium, day 4, daily slug dose (Mixed Halogens 5 ppm, Fuzzicide BAC […] expressed as Cl2)), the “Viable Counts After 4 Days, medium” value was 1 × 10^6 cfu/ml. Also, the “Viable Counts After 2 Days, coupon surfaces” value in data set [3] (stainless steel coupons, day 2, daily slug dose (Mixed Halogens 5 ppm, Fuzzicide BAC […] expressed as Cl2)) came to 27 cfu/cm^2. In data set [3] (stainless steel coupons, day 4, daily slug dose (Mixed Halogens 5 ppm, Fuzzicide BAC […] expressed as Cl2)), the “Viable Counts After 4 Days, coupon surfaces” value came out at 95 Cfu/cm^2.

In the case of `[Na+].[O-]Cl` [NaOCl, reference compound], the “improving water conductivity in the pipes” value in data set [4] is reported as “ineffective”.

For `O=CCCCC=O` [glutaraldehyde, reference compound], the “average H2O2 consumption rate” value in data set [5] (parallel de-inking system at the same plant, commercial chemical formulation containing glutaraldehyde) was ~4 kg H2O2/ton of waste paper. Besides, the “control of the enzymatic degradation of H2O2” value in data set [5] (previous attempts on the trial de-inking system) is given as “did not yield cost-effective results”.
